From patent US20260083742A1, “HOMOLOGOUS RECOMBINATION REPAIR DEFICIENCY (HRD) AS A PREDICTIVE BIOMARKER FOR TREATING CANCER WITH WEE1 INHIBITORS” (Zeno Management, Inc., priority 2023, published 2026)
Like-named read-outs stand apart in the source and are kept apart here. Values belong to the compound of their own block, whether it stands above or below them.

How the values were obtained:
[1] = test system: SUM149PT TNBC xenograft (BRCA1 splice isoform Δ11q); experiment: SUM149PT TNBC xenograft tumor growth inhibition; assay type: in vivo, mice
Method: SUM149PT is a TNBC xenograft model harboring a BRCA1 splice isoform (Δ11q) that produces a truncated, partially functional protein which thereby promotes PARP inhibitor resistance. Azenosertib monotherapy and its combination with olaparib or AZD5305 was evaluated in the SUM149PT model in vivo in mice (FIGS. 10A-10B), and Table 12 summarizes the groups and treatments. Single agent treatment with olaparib at 100 mg/kg QD (FIG. 10A) or with the PARP1 selective inhibitor, AZD5305, at 0.1 or 1 mg/kg QD (FIG. 10B) confirmed SUM149PT resistance to PARP inhibitors.

[2] = test system: parental MDA-MB-436 TNBC cell line; experiment: In vitro activity (IC50) in parental MDA-MB-436; assay type: cell-based
Method: (§1) Cells with BRCA reversion mutations may be considered HRD+due to genome instability (such as TAI, LST, LOH). BRCA reversion mutation is an established mechanism of resistance to both platinum-based chemotherapeutic drugs and PARP inhibitors. In vivo exploration of WEE1 inhibitors (azenosertib, adavosertib) and PARP inhibitors (niraparib, olaparib) was evaluated.
(§2) MDA-MB-436 PARP inhibitor-resistant lines were generated by long-term in vitro treatment with a PARP inhibitor that is olaparib (Ola^R) or niraparib (Nir^R).

[3] = test system: MDA-MB-436 Ola^R (BRCA reversion) TNBC cell line; experiment: In vitro activity (IC50) in olaparib-resistant MDA-MB-436; assay type: cell-based
Method: as §1, §2

[4] = test system: MDA-MB-436 Nir^R (BRCA reversion) TNBC cell line; experiment: In vitro activity (IC50) in niraparib-resistant MDA-MB-436; assay type: cell-based
Method: as §1, §2

[5] = Body weight loss and clinical observations in TNBC PDX study; conditions: azenosertib 60 mg/kg and/or niraparib 35 mg/kg p.o., (5 days on, 2 days off) × 4
Method: Animals were treated with 60 mg/kg azenosertib or 35 mg/kg niraparib alone or in combination on an intermittent dosing regimen of once a day for 5 days followed by 2 days off (qd x5, 2 days off) for 4 cycles (28 days).
Relative body weight (RBW) is calculated for each measurement by dividing the body weight by the body weight at the start of treatment. Individual body weight loss percent is given by the formula: […]
where BWx is the BW at any day during the treatment and BW0 is the BW on the day of inclusion.
Mean body weight loss percent is given by the formula: […]
where BWx is the mean BW at any day during the treatment and BW0 is the mean BW on the day of inclusion.
Mean relative body weight (RBW) curves were obtained by plotting the mean RBW against time for each experimental group. Delta relative body weights (relative body weights of treated group compared to relative body weights of control group) were used for statistical analysis.

[6] = test system: 22RV1 (prostate cancer cell line) subcutaneous xenografts; experiment: 22RV1 subcutaneous xenograft tumor growth inhibition; assay type: in vivo, CB17 SCID mice
Method: The prostate cancer cell line 22RV1 harbors a BRCA2 pathogenic mutation (HRD+). Briefly, 72 tumor-bearing mice were randomized and assigned into nine groups using a randomized block design based on their tumor volumes with eight mice per group. Each mouse was inoculated subcutaneously at the right flank with 22RV1 tumor cells in 0.2 mL mixture of Matrigel (5×10^6 cells/mouse). Treatments were started when the tumor size reached 199.94 mm^3 for tumor efficacy studies (Day 14 post inoculation). [table] Tumor size was measured twice weekly in two dimensions using caliper and expressed in mm3 using the formula: where a and b were long and short diameters of the tumor. The tumor size was used for calculations of T/C %. The T/C(%) was calculated according to the following formula: Two-way ANOVA followed by Bonferroni post-test was performed to compare tumor volumes among vehicle and other groups.

[7] = Body weight loss and clinical observations in ovarian PDX study; assay type: in vivo
Method: Relative Body Weight (RBW), individual body weight and mean body weight loss percent were calculated for each measurement by dividing the body weight by the body weight at the start of treatment as described in Example 3.

[8] = test system: HCC1937 PARP inhibitor-resistant TNBC xenograft; experiment: HCC1937 TNBC xenograft tumor growth inhibition; assay type: in vivo, mice; conditions: olaparib 100 mg/kg QD
Method: Anti-tumor activity of azenosertib monotherapy or in combination with olaparib was evaluated in the HCC1937 model in vivo in mice (FIG. 9), and Table 11 summarizes the groups and treatments. […] Treatment with monotherapy olaparib at 100 mg/kg QD confirmed HCC1937 resistance to the PARP inhibitor.

[9] = parental MDA-MB-436, read-out: In vitro activity (IC50) Wild Type
[10] = MDA-MB-436 Ola^R, read-out: In vitro activity (IC50) Olaparib^R (BRCA reversion)
[11] = Homo sapiens, parental MDA-MB-436, read-out: In vitro activity (IC50) Wild Type
[12] = Homo sapiens, MDA-MB-436 Ola^R, read-out: In vitro activity (IC50) Olaparib^R (BRCA reversion)
[13] = niraparib 30 mg/kg p.o. qd × 5 3 cycle
[14] = azenosertib 60 mg/kg and/or niraparib 35 mg/kg p.o., (5 days on, 2 days off) × 4
[15] = olaparib 50 mg/kg p.o. qd × 5 3 cycle

SMILES: CCc1cc2ncc(CN3CCN(c4ccc(C(=O)NC)nc4)CC3)cc2[nH]c1=O [AZD5305, saruparib]
- anti-tumor activity of single agent ([1]; AZD5305 0.1 or 1 mg/kg QD): resistance

- IC50 [3, 10]: > 10 µM
- IC50 [4]: > 10 µM
SMILES: Cc1cc2ncnn2cc1Nc1ncc2c(n1)n(C1CCOCC1)c(=O)n2C [AZD7648]
- IC50 [2, 9]: > 10 µM

- IC50 [3, 10]: 1.84 µM
- IC50 [4]: 1.77 µM
SMILES: C[C@@H]1COCCN1c1cc(C2([S@](C)(=N)=O)CC2)nc(-c2cc[nH]c3nccc2-3)n1 [AZD6738]
- IC50 [2, 9]: 3.67 µM

- IC50 [3, 12]: 7.73 µM
- IC50 ([4]; Homo sapiens): 8.65 µM
SMILES: NC(=O)c1cccc2cn(-c3ccc([C@@H]4CCCNC4)cc3)nc12 [Niraparib, niraparib]
- IC50 [2, 11]: 0.103 µM
- Max. individual BWL [5]: 6.2%
- Max. mean BWL [5]: 3.4%
- % TGI Day 5 [6, 13]: 31.64%
- % TGI Day 8 [6, 13]: 18.17%
- % TGI Day 12 [6, 13]: 21.99%
- % TGI Day 15 [6, 13]: 4.28%
- % TGI Day 19 [6, 13]: −1.28%
- Max. individual BWL [7, 14]: 7.0%
- Max. mean BWL [7, 14]: 1.5%
- tolerability (body weight data and clinical observations) ([7]; azenosertib at 60 mg/kg, niraparib at 35 mg/kg, single agents or in combination): well tolerated

SMILES: CN(C)CCCOc1ccc(-c2ccc3ncc4c(c3c2)n(C2CCOCC2)c(=O)n4C)cn1 [AZD0156]
- IC50 [2, 9]: 4.98 µM
- IC50 [3, 10]: 1.99 µM
- IC50 [4]: 2.08 µM

- IC50 [3, 12]: > 10 µM
- IC50 ([4]; Homo sapiens): > 10 µM
SMILES: O=C(c1cc(Cc2n[nH]c(=O)c3ccccc23)ccc1F)N1CCN(C(=O)C2CC2)CC1 [Olaparib, olaparib]
- IC50 [2, 11]: 0.095 µM
- anti-tumor activity of single agent ([1]; olaparib 100 mg/kg QD): resistance
- anti-tumor activity of monotherapy [8]: resistance
- % TGI Day 5 [6, 15]: 33.81%
- % TGI Day 8 [6, 15]: 26.80%
- % TGI Day 12 [6, 15]: 18.2%
- % TGI Day 15 [6, 15]: 5.03%
- % TGI Day 19 [6, 15]: 14.79%

- IC50 ([3]; Homo sapiens, MDA-MB-436, read-out: In vitro activity (IC50) Olaparib^R (BRCA reversion)): 5.97 µM
SMILES: Cn1cc(-c2cnn3c(N)c(Br)c([C@@H]4CCCNC4)nc23)cn1 [MK8776]
- IC50 ([2]; Homo sapiens, MDA-MB-436, read-out: In vitro activity (IC50) Wild Type): > 10 µM
